Data reported in patent publication US20110237659A1, “CHROMENONE DERIVATIVES AS TRPV3 ANTAGONISTS” (GLENMARK PHARMACEUTICALS S.A., priority 2008, published 2011).

Target: T1, Human TRPV3 (Homo sapiens, UniProt Q8NET8)
T1 construct: expressed in transfected cells; host or cells: CHO cells
T1 sequence (Q8NET8 1-790): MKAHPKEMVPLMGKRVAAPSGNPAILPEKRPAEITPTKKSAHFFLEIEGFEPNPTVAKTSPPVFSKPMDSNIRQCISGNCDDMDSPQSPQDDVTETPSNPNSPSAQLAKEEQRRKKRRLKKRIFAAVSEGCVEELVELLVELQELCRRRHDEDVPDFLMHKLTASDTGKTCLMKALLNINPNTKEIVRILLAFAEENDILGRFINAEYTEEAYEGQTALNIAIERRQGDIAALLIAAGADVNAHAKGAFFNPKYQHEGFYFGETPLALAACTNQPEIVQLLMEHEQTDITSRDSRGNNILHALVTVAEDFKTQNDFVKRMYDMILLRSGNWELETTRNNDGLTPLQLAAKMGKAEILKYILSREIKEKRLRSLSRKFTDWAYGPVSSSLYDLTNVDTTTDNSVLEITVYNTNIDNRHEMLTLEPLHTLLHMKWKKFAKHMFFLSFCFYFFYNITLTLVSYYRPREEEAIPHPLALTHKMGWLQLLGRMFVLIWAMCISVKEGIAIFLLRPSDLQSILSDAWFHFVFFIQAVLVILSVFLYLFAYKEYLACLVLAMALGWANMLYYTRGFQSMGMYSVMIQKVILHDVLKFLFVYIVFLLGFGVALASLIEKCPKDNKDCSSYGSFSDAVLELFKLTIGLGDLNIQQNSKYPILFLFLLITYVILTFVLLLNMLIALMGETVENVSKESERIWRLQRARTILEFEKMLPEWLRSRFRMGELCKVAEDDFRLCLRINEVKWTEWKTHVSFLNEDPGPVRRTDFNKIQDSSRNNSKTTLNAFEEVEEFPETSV
Test: 45Calcium uptake assay: inhibition of 2-APB induced cellular uptake of radioactive calcium in human TRPV3 expressing CHO cells
Type: cell-based
Settings: 2-APB 500 μM
Source text: The illustrative examples of the present invention are screened for TRPV3 activity according to a modified procedure described in (a) Tóth, A. et al. Life Sciences 2003, 73, 487-498. (b) McNamara C, R. et al. Proc. Natl. Acad. Sci. U.S.A., 2007, 104, 13525-13530. The screening of the compounds can be carried out by other methods and procedures known to persons skilled in the art.
Screening for TRPV3 Antagonist Using the ^45Calcium Uptake Assay
The inhibition of TRPV3 receptor activation was followed as inhibition of 2-aminoethxydiphenylborate (2-APB) induced cellular uptake of radioactive calcium. Test compounds were dissolved in dimethyl sulfoxide (DMSO) to prepare 20 mM stock solution and then diluted using plain medium with DMEM/F-12 containing 1.8 mM CaCl2 to get desired concentration. Final concentration of DMSO in the reaction was 0.5% (v/v). Human TRPV3 expressing CHO cells were grown in DMEM/F-12 medium with 10% FBS, 1% penicillin-streptomycin solution, 400 μg/mL of G-418. Cells were seeded 24 h prior to the assay in 96 well plates so as to get ˜50,000 cells per well on the day of experiment. Cells were treated with test compounds for 10 minutes followed by addition of 2-APB at a final concentration of 500 μM and 5 μCi/mL ^45Ca^+2 for 4 minutes. Cells were washed and lysed using buffer containing 1% Triton X-100, 0.1% deoxycholate and 0.1% SDS. Radioactivity in the lysate was measured in Packardt Top count after addition of liquid scintillant. Concentration response curves were plotted as a % of maximal response obtained in the absence of test antagonist. IC50 value was calculated from concentration response curve by nonlinear regression analysis using GraphPad PRISM software.
Percentage inhibition at concentrations of 1.0 μM and 10.0 μM are given in the table along with IC50 (nM) values for selected examples.

COc1cccc(/C=C/c2oc3cc(F)ccc3c(=O)c2-c2ccc(C#N)cc2)c1OCC(C)C [Example 13, 4-{7-Fluoro-2-[(E)-2-(2-isobutoxy-3-methoxyphenyl)-1-ethenyl]-4-oxo-4H-3-chromenyl}benzonitrile]
inhibition at 1 µM (1.0 μM test compound, read-out: Percentage inhibition at 1.0 μM): 92.9% | inhibition at 10 µM (10.0 μM test compound, read-out: Percentage inhibition at 10.0 μM): 96.7% | IC50: 50 to 150 nM
